Reference: PubChem BioAssay (NCI)
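In this assay, cells in 96-well plates receive the compound at five concentrations for 48 hours. Endpoints are linearly interpolated between the surrounding concentrations. Definition used: TGI = concentration required for complete inhibition of growth.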

The compounds below were run on K-562 leukemia (assay: NCI anticancer screen, dose series, 48 h).
`COc1cc(/C=C\C(=O)O)ccc1OCc1ccccc1` was tested, and the TGI was over 100 µM.
`C=C1CC(C)(c2ccc(Nc3nc4ccccc4c4occc34)cc2)OC1=O` (stereo not drawn) showed a TGI of over 100 µM.
With `CC1CC(=O)Nc2nc3ccccc3n21` (stereo not drawn) the TGI was over 100 µM.

The compounds below were run on SK-OV-3 ovarian (assay: NCI anticancer screen, dose series, 48 h).
`COc1cc(/C=C\C(=O)O)ccc1OCc1ccccc1` gave a TGI of over 100 µM.
With `C=C1CC(C)(c2ccc(Nc3nc4ccccc4c4occc34)cc2)OC1=O` (stereo not drawn) the TGI was 24.1 µM.
Compound `CC1CC(=O)Nc2nc3ccccc3n21` (stereo not drawn) has a TGI of over 100 µM.

The compounds below were run on MOLT-4 leukemia (assay: NCI anticancer screen, dose series, 48 h).
Work on `COc1cc(/C=C\C(=O)O)ccc1OCc1ccccc1` yielded a TGI of over 100 µM.
With `CC1CC(=O)Nc2nc3ccccc3n21` (stereo not drawn) the TGI was over 100 µM.
In the case of `CC(C)(C)[Si](C)(C)OCC1OC(n2cnc3c(N)ncnc32)C(O[Si](C)(C)C(C)(C)C)C1O[Si](C)(C)C(C)(C)C` (stereo not drawn), the TGI is reported as 12.8 µM.

These compounds were tested on HOP-92 NSCLC (assay: NCI anticancer screen, dose series, 48 h).
`COc1cc(/C=C\C(=O)O)ccc1OCc1ccccc1` gave a TGI of over 100 µM.
Work on `C=C1CC(C)(c2ccc(Nc3nc4ccccc4c4occc34)cc2)OC1=O` (stereo not drawn) yielded a TGI of 12.6 µM.
`CC1CC(=O)Nc2nc3ccccc3n21` (stereo not drawn) showed a TGI of over 100 µM.
Work on `CC(C)(C)[Si](C)(C)OCC1OC(n2cnc3c(N)ncnc32)C(O[Si](C)(C)C(C)(C)C)C1O[Si](C)(C)C(C)(C)C` (stereo not drawn) yielded a TGI of over 100 µM.

The compounds below were run on SNB-19 CNS (assay: NCI anticancer screen, dose series, 48 h).
Work on `COc1cc(/C=C\C(=O)O)ccc1OCc1ccccc1` yielded a TGI of over 100 µM.
`C=C1CC(C)(c2ccc(Nc3nc4ccccc4c4occc34)cc2)OC1=O` (stereo not drawn) was tested, and the TGI was 34.6 µM.
With `CC1CC(=O)Nc2nc3ccccc3n21` (stereo not drawn) the TGI was over 100 µM.

What follows are compounds tested on NCI-H23 lung (assay: NCI anticancer screen, dose series, 48 h).
Compound `COc1cc(/C=C\C(=O)O)ccc1OCc1ccccc1` has a TGI of over 100 µM.
With `C=C1CC(C)(c2ccc(Nc3nc4ccccc4c4occc34)cc2)OC1=O` (stereo not drawn) the TGI was 4.55 µM.
With `CC1CC(=O)Nc2nc3ccccc3n21` (stereo not drawn) the TGI was over 100 µM.

What follows are compounds tested on ACHN renal (assay: NCI anticancer screen, dose series, 48 h).
With `COc1cc(/C=C\C(=O)O)ccc1OCc1ccccc1` the TGI was over 100 µM.
Work on `C=C1CC(C)(c2ccc(Nc3nc4ccccc4c4occc34)cc2)OC1=O` (stereo not drawn) yielded a TGI of 17.8 µM.
With `CC1CC(=O)Nc2nc3ccccc3n21` (stereo not drawn) the TGI was over 100 µM.
With `CC(C)(C)[Si](C)(C)OCC1OC(n2cnc3c(N)ncnc32)C(O[Si](C)(C)C(C)(C)C)C1O[Si](C)(C)C(C)(C)C` (stereo not drawn) the TGI was 27.2 µM.

The compounds below were run on HOP-62 NSCLC (assay: NCI anticancer screen, dose series, 48 h).
Compound `COc1cc(/C=C\C(=O)O)ccc1OCc1ccccc1` has a TGI of over 100 µM.
In the case of `C=C1CC(C)(c2ccc(Nc3nc4ccccc4c4occc34)cc2)OC1=O` (stereo not drawn), the TGI is reported as 34 µM.
For `CC1CC(=O)Nc2nc3ccccc3n21` (stereo not drawn), the TGI was over 100 µM.
In the case of `CC(C)(C)[Si](C)(C)OCC1OC(n2cnc3c(N)ncnc32)C(O[Si](C)(C)C(C)(C)C)C1O[Si](C)(C)C(C)(C)C` (stereo not drawn), the TGI is reported as 46 µM.

Each compound was assayed on MALME-3M melanoma (assay: NCI anticancer screen, dose series, 48 h).
`COc1cc(/C=C\C(=O)O)ccc1OCc1ccccc1` gave a TGI of over 100 µM.
`C=C1CC(C)(c2ccc(Nc3nc4ccccc4c4occc34)cc2)OC1=O` (stereo not drawn) gave a TGI of 43.4 µM.
Work on `CC1CC(=O)Nc2nc3ccccc3n21` (stereo not drawn) yielded a TGI of over 100 µM.
For `CC(C)(C)[Si](C)(C)OCC1OC(n2cnc3c(N)ncnc32)C(O[Si](C)(C)C(C)(C)C)C1O[Si](C)(C)C(C)(C)C` (stereo not drawn), the TGI was over 100 µM.

Each compound was assayed on CAKI-1 renal (assay: NCI anticancer screen, dose series, 48 h).
In the case of `COc1cc(/C=C\C(=O)O)ccc1OCc1ccccc1`, the TGI is reported as over 100 µM.
In the case of `C=C1CC(C)(c2ccc(Nc3nc4ccccc4c4occc34)cc2)OC1=O` (stereo not drawn), the TGI is reported as 40.3 µM.
`CC1CC(=O)Nc2nc3ccccc3n21` (stereo not drawn) showed a TGI of over 100 µM.

These compounds were tested on COLO 205 colon (assay: NCI anticancer screen, dose series, 48 h).
`COc1cc(/C=C\C(=O)O)ccc1OCc1ccccc1` gave a TGI of over 100 µM.
With `C=C1CC(C)(c2ccc(Nc3nc4ccccc4c4occc34)cc2)OC1=O` (stereo not drawn) the TGI was 16.2 µM.
For `CC1CC(=O)Nc2nc3ccccc3n21` (stereo not drawn), the TGI was over 100 µM.
With `CC(C)(C)[Si](C)(C)OCC1OC(n2cnc3c(N)ncnc32)C(O[Si](C)(C)C(C)(C)C)C1O[Si](C)(C)C(C)(C)C` (stereo not drawn) the TGI was over 100 µM.

Each compound was assayed on TK-10 renal (assay: NCI anticancer screen, dose series, 48 h).
With `COc1cc(/C=C\C(=O)O)ccc1OCc1ccccc1` the TGI was over 100 µM.
Work on `C=C1CC(C)(c2ccc(Nc3nc4ccccc4c4occc34)cc2)OC1=O` (stereo not drawn) yielded a TGI of 16.7 µM.
`CC1CC(=O)Nc2nc3ccccc3n21` (stereo not drawn) gave a TGI of over 100 µM.

The compounds below were run on HCT-15 colon (assay: NCI anticancer screen, dose series, 48 h).
With `COc1cc(/C=C\C(=O)O)ccc1OCc1ccccc1` the TGI was over 100 µM.
`C=C1CC(C)(c2ccc(Nc3nc4ccccc4c4occc34)cc2)OC1=O` (stereo not drawn) showed a TGI of 4.73 µM.
`CC1CC(=O)Nc2nc3ccccc3n21` (stereo not drawn) showed a TGI of over 100 µM.
With `CC(C)(C)[Si](C)(C)OCC1OC(n2cnc3c(N)ncnc32)C(O[Si](C)(C)C(C)(C)C)C1O[Si](C)(C)C(C)(C)C` (stereo not drawn) the TGI was over 100 µM.

Each compound was assayed on UO-31 renal (assay: NCI anticancer screen, dose series, 48 h).
`COc1cc(/C=C\C(=O)O)ccc1OCc1ccccc1` gave a TGI of over 100 µM.
`CC1CC(=O)Nc2nc3ccccc3n21` (stereo not drawn) showed a TGI of over 100 µM.

The compounds below were run on UACC-62 melanoma (assay: NCI anticancer screen, dose series, 48 h).
Work on `COc1cc(/C=C\C(=O)O)ccc1OCc1ccccc1` yielded a TGI of over 100 µM.
